In patent US10995091B2 (Proximagen, LLC, priority 2010, dated 2021):
pKi: −log10 of the molar value.

Each compound was assayed against T1, Human CXCR4 transfected HEK293 cells (Homo sapiens, UniProt P61073) (assay: CXCR4 functional calcium assay (calcium flux FLIPR, antagonism of SDF1 response)). Conditions: CXCR4 functional activity, antagonism of SDF1 (EC50 concentration), read-out: CXCR4 fKi.
T1 construct: expressed in transfected cells; host or cells: HEK293
Type: cell-based
Summary of the method: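 HEK293 cells stably transfected with human CXCR4 were loaded with 2 μM Fluo-4 AM in HBSS containing 2.5 mM probenecid, 0.1% BSA and 10 mM HEPES at pH 7.4 and 37° C. Compound was added first, then SDF1 at its EC50 concentration, and intracellular calcium fluorescence was followed on a FLIPR. Antagonist dose-response curves were fitted.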

T1 sequence (P61073 whole entry): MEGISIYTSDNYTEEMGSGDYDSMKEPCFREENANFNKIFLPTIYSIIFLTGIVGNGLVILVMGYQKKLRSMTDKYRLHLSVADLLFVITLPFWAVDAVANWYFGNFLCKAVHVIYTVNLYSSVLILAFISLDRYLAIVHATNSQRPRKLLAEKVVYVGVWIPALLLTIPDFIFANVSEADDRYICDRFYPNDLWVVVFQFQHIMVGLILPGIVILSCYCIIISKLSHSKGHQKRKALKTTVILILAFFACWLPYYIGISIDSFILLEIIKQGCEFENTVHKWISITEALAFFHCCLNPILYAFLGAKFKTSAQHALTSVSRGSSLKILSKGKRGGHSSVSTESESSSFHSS

| SMILES | pKi |
| --- | --- |
| CC(C)N1CCC(N2C3CCCC2CN(c2cccc(C(=O)NCC4CC4)n2)CC3)CC1 (centres unmarked) [Example 217, N-(Cyclopropylmethyl)-6-{10-[1-(propan-2-yl)piperidin-4-yl]-3,10-diazabicyclo[4.3.1]decan-3-yl}pyridine-2-carboxamide] | 6.30 to 7.00 |
| O=C(Nc1ccncc1)c1cccc(N2CCC3CCCC(C2)N3C2CCN(Cc3ccccc3Cl)CC2)n1 (centres unmarked) [Example 218, 6-(10-{1-[(2-Chlorophenyl)methyl]piperidin-4-yl}-3,10-diazabicyclo[4.3.1]decan-3-yl)-N-(pyridin-4-yl)pyridine-2-carboxamide] | 6.30 to 7.00 |
| CCCC(=O)c1cccc(N2CCCN(C3CCN(C(C)C)CC3)CC2)n1 [Example 219, 1-(6-{4-[1-(Propan-2-yl)piperidin-4-yl]-1,4-diazepan-1-yl}pyridin-2-yl)butan-1-one] | 6.30 to 7.00 |
| CC(C)N1CCC(N2CCCN(c3cccc(C(=O)Cc4ccccc4)n3)CC2)CC1 [Example 220, 2-Phenyl-1-(6-{4-[1-(propan-2-yl)piperidin-4-yl]-1,4-diazepan-1-yl}pyridin-2-yl)ethan-1-one] | 7.00 to 7.70 |
| CC(C)N1CCCC(N2CCC(Oc3cccc(C(=O)Nc4ccncc4)n3)CC2)CC1 (centres unmarked) [Example 221, 6-({1-[1-(Propan-2-yl)azepan-4-yl]piperidin-4-yl}oxy)-N-(pyridin-4-yl)pyridine-2-carboxamide] | 6.30 to 7.00 |
| CC(C)N1CCC(N2CCCC(Nc3cccc(C(=O)Nc4ccncc4)n3)C2)CC1 (centres unmarked) [Example 222, 6-({1-[1-(Propan-2-yl)piperidin-4-yl]piperidin-3-yl}amino)-N-(pyridin-4-yl)pyridine-2-carboxamide] | 6.00 to 6.30 |
| CC(C)N1CCC(CN[C@@H]2CCN(c3cccc(-c4ncc(C5CC5)[nH]4)n3)C2)CC1 [Example 223, (3R)-1-[6-(4-Cyclopropyl-1H-imidazol-2-yl)pyridin-2-yl]-N-{[1-(propan-2-yl)piperidin-4-yl]methyl}pyrrolidin-3-amine] | 6.00 to 6.30 |
| Cc1nc(-c2cccc(N3CC[C@@H](NC[C@@H]4CCN(C5CCCC5)C4)C3)n2)[nH]c1C1CC1 [Example 224, (3R)—N-{[(3S)-1-Cyclopentylpyrrolidin-3-yl]methyl}-1-[6-(4-cyclopropyl-5-methyl-1H-imidazol-2-yl)pyridin-2-yl]pyrrolidin-3-amine] | > 7.70 |
| Cc1nc(-c2cccc(N3CC[C@@H](NC[C@H]4CCN(C5CCCC5)C4)C3)n2)[nH]c1C1CC1 [Example 225, (3R)—N-{[(3R)-1-Cyclopentylpyrrolidin-3-yl]methyl}-1-[6-(4-cyclopropyl-5-methyl-1H-imidazol-2-yl)pyridin-2-yl]pyrrolidin-3-amine] | > 7.70 |
| O=C(Nc1ccncc1)c1cccc(N2CC[C@@H](NC[C@@H]3CCN(C4CCCC4)C3)C2)n1 [Example 226, 6-[(3R)-3-({[(3S)-1-Cyclopentylpyrrolidin-3-yl]methyl}amino)pyrrolidin-1-yl]-N-(pyridin-4-yl)pyridine-2-carboxamide] | > 7.70 |
| O=C(Nc1ccncc1)c1cccc(N2CC[C@@H](NC[C@H]3CCN(C4CCCC4)C3)C2)n1 [Example 227, 6-[(3R)-3-({[(3R)-1-Cyclopentylpyrrolidin-3-yl]methyl}amino)pyrrolidin-1-yl]-N-(pyridin-4-yl)pyridine-2-carboxamide] | > 7.70 |
| O=C(Nc1ccncc1)c1cccc(N2CC[C@@H](NCC3CCN(C4CCCC4)CC3)C2)n1 [Example 228, 6-[(3R)-3-{[(1-Cyclopentylpiperidin-4-yl)methyl]amino}pyrrolidin-1-yl]-N-(pyridin-4-yl)pyridine-2-carboxamide] | > 7.70 |
| c1cc(NCCNCC2CCN(C3CCCC3)C2)nc(-c2ncc(C3CC3)[nH]2)c1 (centres unmarked) [Example 229, [(1-Cyclopentylpyrrolidin-3-yl)methyl](2-{[6-(5-cyclopropyl-1H-imidazol-2-yl)pyridin-2-yl]amino}ethyl)amine] | 6.30 to 7.00 |
| c1cc(NCCNC2CCCN(C3CCCC3)C2)nc(-c2ncc(C3CC3)[nH]2)c1 (centres unmarked) [Example 230, 1-Cyclopentyl-N-(2-{[6-(5-cyclopropyl-1H-imidazol-2-yl)pyridin-2-yl]amino}ethyl)piperidin-3-amine] | 6.30 to 7.00 |
| Cc1nc(-c2cccc(NCCNC3CCCN(C4CCCC4)C3)n2)[nH]c1C1CC1 (centres unmarked) [Example 231, N-{2-[(1-Cyclopentylpiperidin-3-yl)amino]ethyl}-6-(5-cyclopropyl-4-methyl-1H-imidazol-2-yl)pyridin-2-amine] | 6.30 to 7.00 |
| Cc1nc(-c2cccc(NCCNC3CCN(C4CCCC4)CC3)n2)[nH]c1C1CC1 [Example 232, 1-Cyclopentyl-N-(2-{[6-(5-cyclopropyl-4-methyl-1H-imidazol-2-yl)pyridin-2-yl]amino}ethyl)piperidin-4-amine] | 6.30 to 7.00 |
| c1cc(NCCNC2CCN(C3CCCC3)C2)nc(-c2ncc(C3CC3)[nH]2)c1 (centres unmarked) [Example 233, N-{2-[(1-Cyclopentylpyrrolidin-3-yl)amino]ethyl}-6-(5-cyclopropyl-1H-imidazol-2-yl)pyridin-2-amine] | 6.00 to 6.30 |
| CC(C)N1CCCC(NCCNc2cccc(C(=O)Nc3ccncc3)n2)CC1 (centres unmarked) [Example 234, 6-[(2-{[1-(Propan-2-yl)azepan-4-yl]amino}ethyl)amino]-N-(pyridin-4-yl)pyridine-2-carboxamide] | 6.30 to 7.00 |

| SMILES | pKi |
| --- | --- |
| CCc1cnc(-c2cccc(NCCNC3CCN([C@H](C)CC)CC3)n2)[nH]1 [Example 235, 1-[(2R)-Butan-2-yl]-N-(2-{[6-(4-ethyl-1H-imidazol-2-yl)pyridin-2-yl]amino}ethyl)piperidin-4-amine] | 6.30 to 7.00 |
| Cc1nc(-c2cccc(NCCNC3CCN(C(C)C)CC3)n2)[nH]c1C1CC1 [Example 236, N-(2-{[6-(5-Cyclopropyl-4-methyl-1H-imidazol-2-yl)pyridin-2-yl]amino}ethyl)-1-(propan-2-yl)piperidin-4-amine] | 6.30 to 7.00 |
| c1cc(NCCNCCCNC2CCCC2)nc(-c2ncc(C3CC3)[nH]2)c1 [Example 237, N-(2-{[3-(Cyclopentylamino)propyl]amino}ethyl)-6-(5-cyclopropyl-1H-imidazol-2-yl)pyridin-2-amine] | 6.30 to 7.00 |
| CC(C)N1CCCC(N(C)CCN(C)c2cccc(C(=O)Nc3ccncc3)n2)CC1 (centres unmarked) [Example 238, 6-[Methyl(2-{methyl[1-(propan-2-yl)azepan-4-yl]amino}ethyl)amino]-N-(pyridin-4-yl)pyridine-2-carboxamide] | 6.30 to 7.00 |
| CC(C)N1CCC(NCCCNc2cccc(C(=O)Nc3ccncc3)n2)CC1 [Example 239, 6-[(3-{[1-(Propan-2-yl)piperidin-4-yl]amino}propyl)amino]-N-(pyridin-4-yl)pyridine-2-carboxamide] | 6.30 to 7.00 |
| Cc1ccccc1CN1CCCC(N2CCN(c3cccc(C(=O)Nc4ccncc4)n3)CC2)CC1 (centres unmarked) [Example 240, 6-(4-{1-[(2-Methylphenyl)methyl]azepan-4-yl}piperazin-1-yl)-N-(pyridin-4-yl)pyridine-2-carboxamide] | 7.00 to 7.70 |
| O=C(Nc1ccncc1)c1cccc(N2CCN(C3CCCN(Cc4ccc(F)cc4Cl)CC3)CC2)n1 (centres unmarked) [Example 241, 6-(4-{1-[(2-Chloro-4-fluorophenyl)methyl]azepan-4-yl}piperazin-1-yl)-N-(pyridin-4-yl)pyridine-2-carboxamide] | 7.00 to 7.70 |
| CC(C)N1CCCC(N2CCN(c3cccc(C(=O)Nc4ccncc4)n3)CC2)CC1 (centres unmarked) [Example 242, 6-{4-[1-(Propan-2-yl)azepan-4-yl]piperazin-1-yl}-N-(pyridin-4-yl)pyridine-2-carboxamide] | 6.30 to 7.00 |
| Cc1nc(-c2cccc(N3CCN(C4CCCN(C(C)C)CC4)CC3)n2)[nH]c1C1CC1 (centres unmarked) [Example 243, 4-{4-[6-(5-Cyclopropyl-4-methyl-1H-imidazol-2-yl)pyridin-2-yl]piperazin-1-yl}-1-(propan-2-yl)azepane] | 6.30 to 7.00 |
| CC(C)N1CCO[C@H](CN2CCCN(c3cccc(C(=O)Nc4ccncc4)n3)CC2)C1 [Example 244, 6-(4-{[(2R)-4-(Propan-2-yl)morpholin-2-yl]methyl}-1,4-diazepan-1-yl)-N-(pyridin-4-yl)pyridine-2-carboxamide] | 7.00 to 7.70 |
| Cc1nc(-c2cccc(N3CCN(C4CCCN(C5CCCC5)CC4)CC3)n2)[nH]c1C1CC1 (centres unmarked) [Example 245, 1-Cyclopentyl-4-{4-[6-(5-cyclopropyl-4-methyl-1H-imidazol-2-yl)pyridin-2-yl]piperazin-1-yl}azepane] | 7.00 to 7.70 |
| Cc1nc(-c2cccc(NCCNC3CCCN(C4CCCC4)CC3)n2)[nH]c1C1CC1 (centres unmarked) [Example 246, 1-Cyclopentyl-N-(2-{[6-(5-cyclopropyl-4-methyl-1H-imidazol-2-yl)pyridin-2-yl]amino}ethyl)azepan-4-amine] | 7.00 to 7.70 |
| Cc1nc(-c2cccc(NCCNC[C@@H]3CCN(C4CCCC4)C3)n2)[nH]c1C1CC1 [Example 247, {[(3S)-1-Cyclopentylpyrrolidin-3-yl]methyl}(2-{[6-(5-cyclopropyl-4-methyl-1H-imidazol-2-yl)pyridin-2-yl]amino}ethyl)amine] | 7.00 to 7.70 |
| O=C(NCC1CC1)c1cccc(N2CCC(NCc3ccccc3Cl)CC2)n1 [Example 248, 6-(4-{[(2-Chlorophenyl)methyl]amino}piperidin-1-yl)-N-(cyclopropylmethyl)pyridine-2-carboxamide] | 6.00 to 6.30 |
| CC(C)N1CCC(NC2CCN(c3cccc(C(=O)Nc4ccncc4)n3)CC2)CC1 [Example 249, 6-(4-{[1-(Propan-2-yl)piperidin-4-yl]amino}piperidin-1-yl)-N-(pyridin-4-yl)pyridine-2-carboxamide] | 6.30 to 7.00 |
| CCCCNC(=O)c1cccc(N2CCCN(CC3CN(C(C)C)CCO3)CC2)n1 (centres unmarked) [Example 250, N-Butyl-6-(4-{[4-(propan-2-yl)morpholin-2-yl]methyl}-1,4-diazepan-1-yl)pyridine-2-carboxamide] | 7.00 to 7.70 |
| O=C(Nc1ccncc1)c1cccc(N2CCCN(Cc3ccc(F)cc3Cl)CC2)n1 [Example 251, 6-{4-[(2-Chloro-4-fluorophenyl)methyl]-1,4-diazepan-1-yl}-N-(pyridin-4-yl)pyridine-2-carboxamide] | 6.30 to 7.00 |
